Measurements: patent US20230263783A1, “CANCER TREATMENT BY COMBINED INHIBITION OF POLO-LIKE KINASE AND MICROTUBULE POLYMERIZATION” (Massachusetts Institute of Technology, priority 2022, published 2023)
Where two headings read alike, the source gives them in different places.

What was measured:
[1] = tested on: mouse xenograft models; details: 10 mg/kg and 20 mg/kg on days 1 and 28; cited from earlier work
[2] = cited from earlier work
[3] = tested on: cell mitosis; details: read-out: EC50, inhibition of cell mitosis; cited from earlier work
[4] = tested on: Cdc25C-T96 phosphorylation; details: direct readout of PLK1 inhibition; cited from earlier work
[5] = tested on: BT20 cells; details: 200 mg/kg; cited from earlier work
[6] = tested on: Bel-7402, MCF-7, and MIA-PaCa cells; details: 250 mg/kg; cited from earlier work
[7] = cited from earlier work; for maximum tolerated dose: elderly patients with relapsed/refractory AML
[8] = molecular target: several tyrosine kinases and cyclin-dependent kinase 1; details: read-out: IC50, tyrosine kinases and Cdk1; cited from earlier work
[9] = tested on: C4-2 castrate resistant prostate cancer (CRPC) cells; assay: Relative viability after drug dose matrix (CellTiter-Glo, Bliss Independence) in C4-2 cells; assay type: cell-based; details: for effect of the combination of TH588 with a Plk1 inhibitor: each Plk1 inhibitor in combination with TH588, relative viability
Protocol: All cell lines were cultured in a humidified incubator at 37° C. and with 5% CO2, were maintained sub-confluent and used for no more than 20 passages. Media was supplemented with 10% fetal bovine serum (FBS), contained 2 mM glutamine and lacked antibiotics, unless otherwise noted. A549, BT-20, CCD-1112sk, CCD-18co, CFPAC1, HCT 116, HeLa, HT-29, HT55, MCF7, MDA-MB-157, MDA-MB-231, MDA-MB-415, MDA-MB-436, MDA-MB-453, MDA-MB-468, SW48, T98G, U-2 OS, U-87 MG, CAOV3, COV362, and JIMT1 cells were grown in DMEM; 22RV1, AU565, C4-2, CAL33, COL0205,HCC38, HCT-15, KYSE150, LNCaP, LOVO, NCI-H1299, PC-3, ZR-75-1, HCC1419, HCC1569, HCC1954, ZR7530, OVCAR-4, OVCAR8 cells were grown in RPMI 1640; HT1197, HT1376, J82, UMUC3 cells were grown in MEM; OV90, TOV122D, TOV21G cells were grown in 1:1 MCDB105:Medial99 15% FBS; 59M, OAW28, OAW42 cells were grown in Advanced DMEM 0.023 IU/ml insulin; ES2, SKOV3 cells were grown in McCoy's 5A; JHOS2, JHOS4 cells were grown in 1:1 DMEM:HamF12; HUVEC cells were grown in EBM with EGM™-2 BULLETKIT™
(§1) For dose response experiments and experiments that examine synergy as a measure of change in relative viability, cells were grown in 384-well plates in triplicate. The following day the cells were subjected to a drug dose matrix that consisted of increasing concentrations of a Plk inhibitor, increasing concentrations of a microtubule polymerization inhibitor, and all pairwise combinations. Drugs were dissolved in DMSO and diluted in the appropriate cell growth media while maintaining a constant final concentration of DMSO. After five days, relative viability was assessed using […]-GLO™ (Promega) Luminescent Cell Viability Assay according to the manufacturer's recommendations. Luminescence was measured using an […]™ M200 Pro plate reader (Tecan Group Ltd.). […] The dose response plots (for example FIG. 1A) show sensitivity to increasing concentrations of a microtubule polymerization inhibitor in the absence or presence of a constant amount of Plk inhibitor. Bars represent the standard error of the mean. The concentration of Plk inhibitor chosen to presented was based on a ˜20-30% reduction of viability when that drug was used at that dose in isolation. The entire amount of greater-than-additive response observed in the dose matrix is the integrated volume between the observed and expected surfaces generated by the response matrix and is also known as Bliss Volume. Bliss Volume synergy metrics are presented in FIG. 3 as the fractional change in volume between the expected and observed response surfaces.

[10] = tested on: BxPC-3; details: twice-weekly; cited from earlier work
[11] = tested on: HCT 116 xenografts; details: cited from earlier work
[12] = tested on: A549; details: twice-weekly; cited from earlier work
[13] = molecular target: Plk1 (Homo sapiens, UniProt P53350); details: cited from earlier work
[14] = tested on: HT-29 human colorectal tumors; details: cited from earlier work
[15] = tested on: tumor cells; assay: Tumor cell killing by other microtubule polymerization inhibitors with Plk1 inhibitors; assay type: cell-based; details: in combination with Plk1 inhibitors
Protocol: as §1, with “Bliss Volume synergy metrics are presented in FIG. 3 as the fractional change in volume between the expected and observed response surfaces.” left out

[16] = tested on: C4-2 CRPC cells; assay: Flow cytometry for mitotic cells (phospho-Ser10 Histone H3); assay type: cell-based; details: TH588 with Plk1 inhibitor BI2536, 0 to 48 hours, FIG. 1B
Protocol: (§2) C4-2 CRPC cells were plated in 6-well plates at a density of 300,000 cells per well and a total volume of 3 mls. The next day drugs were diluted in the appropriate growth media while maintaining a constant concentration of DMSO and added to the wells. After the indicated amount of time, cells were harvested by trypsinization. The media, trypsin and PBS wash were collected together to avoid loss of loosely attached or detached cells. Cells were fixed in 4% formaldehyde in PBS for 15 minutes, washed with PBS containing 1% bovine serum albumin (PBS-BSA), and then stored in methanol at −20° C. overnight. Cells were then washed twice in PBS-BSA 0.1% Tween-20, incubated with primary antibodies overnight at 4° C., washed with PBS-BSA 0.1% Tween-20 and incubated for 1 hour with fluorescent-dye conjugated secondary antibodies (diluted 1:200, Alexa Fluor, Molecular Probes) at room temperature for 1 hour. Primary antibodies included anti-phospho-serine 10 histone H3 (clone 3H10, Millipore) and anti-active caspase-3 (clone C92-605, BD Pharmingen). The fixed cells were then washed with PBS-BSA 0.1% Tween-20 and resuspended in PBS containing 1 μg/ml 4,6-diamidino-2-phenylindole (DAPI, Molecular Probes) to stain DNA and analyzed using a BD™ LSRII flow cytometer (Becton Dickinson) and the FLOWJO™ software package. Shown is the average of three replicates±standard error of the mean.

[17] = tested on: tubulin; assay: Microtubule polymerization in vitro; assay type: biochemical
[18] = tested on: C4-2 CRPC cells; assay: Flow cytometry for apoptotic cells (cleaved caspase-3); assay type: cell-based; details: TH588 with Plk1 inhibitor BI2536, 0 to 48 hours, FIG. 1C
Protocol: as §2

[19] = tested on: cancer cell lines of various origin; assay: Combination synergy (Bliss Volume) in cancer cell lines of various origin; assay type: cell-based; details: TH588 with a Plk1 inhibitor; approximately thirty cell lines, in the majority of these; FIG. 3
Protocol: (§3) All cell lines were cultured in a humidified incubator at 37° C. and with 5% CO2, were maintained sub-confluent and used for no more than 20 passages. Media was supplemented with 10% fetal bovine serum (FBS), contained 2 mM glutamine and lacked antibiotics, unless otherwise noted. […]
(§4) For dose response experiments and experiments that examine synergy as a measure of change in relative viability, cells were grown in 384-well plates in triplicate. […] After five days, relative viability was assessed using […]-GLO™ (Promega) Luminescent Cell Viability Assay according to the manufacturer's recommendations. Luminescence was measured using an […]™ M200 Pro plate reader (Tecan Group Ltd.). […]

[20] = tested on: C4-2 CRPC xenograft tumors; assay: Microwell tumor-implantable device, apoptotic index in xenograft tumors; assay type: in vivo, mice; details: half-dose BI2536 with half-dose TH588 versus monotherapy wells, 24 hours after implantation, p<0.01, FIG. 2B
Protocol: C4-2 CRPC xenograft tumors were grown in four to six week old castrated male NCR nude mice. Five million C4-2 cells in 200 μl serum free media, mixed 1:1 with growth factor reduced […]® (Invitrogen) were injected into the hind flank subcutaneously using a 23 gauge needle. Tumors took four to eight weeks to grow. Microdose drug delivery devices were manufactured, implanted, and analyzed as described by Jonas, O., et al. Science Translational Medicine, 7(284): 284ra57 (2015). […] Tumors were excised 24 hours after device implantation, fixed in 10% formalin for 24 hours, and embedded in paraffin. Sections were stained with cleaved caspase-3 antibody (Cell Signaling Technologies, 9664) followed by detection with horseradish peroxidase conjugated secondary antibody and diaminobenzidine with hematoxylin used as a counterstain. Images were viewed using an EVOS® Cell Imaging System (Invitrogen) microscope, and scored using ImageJ in a blinded manner. Apoptotic index (Al) was calculated as the percentage of cells that were cleaved caspase-3-positive within […] of the reservoir-tissue interface.

[21] = tested on: non-cancer cells; assay: Combination synergy (Bliss Volume) in non-cancer cell lines; assay type: cell-based; details: TH588 with a Plk1 inhibitor; FIG. 3
Protocol: as §3, §4

Sequence of Plk1 (P53350 whole entry): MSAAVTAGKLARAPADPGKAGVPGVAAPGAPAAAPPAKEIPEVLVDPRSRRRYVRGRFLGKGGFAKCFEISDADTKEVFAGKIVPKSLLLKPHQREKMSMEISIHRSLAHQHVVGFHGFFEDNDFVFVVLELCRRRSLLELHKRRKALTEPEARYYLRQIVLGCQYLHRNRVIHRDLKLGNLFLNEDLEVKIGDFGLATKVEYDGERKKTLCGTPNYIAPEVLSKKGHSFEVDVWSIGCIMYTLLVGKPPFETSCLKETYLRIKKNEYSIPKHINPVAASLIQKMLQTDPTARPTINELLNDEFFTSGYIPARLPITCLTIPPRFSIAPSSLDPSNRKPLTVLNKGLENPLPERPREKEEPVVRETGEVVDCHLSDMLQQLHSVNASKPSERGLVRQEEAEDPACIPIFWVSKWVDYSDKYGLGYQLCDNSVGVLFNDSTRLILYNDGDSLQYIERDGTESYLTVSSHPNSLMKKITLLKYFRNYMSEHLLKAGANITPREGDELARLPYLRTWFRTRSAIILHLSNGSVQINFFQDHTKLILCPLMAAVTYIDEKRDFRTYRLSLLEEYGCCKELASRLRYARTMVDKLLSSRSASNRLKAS

COc1ccc(S(=O)(=O)Nc2ccccc2/C=C/c2cc[n+]([O-])cc2)cc1 [HMN-176]
antitumor activity in mouse xenograft models [1]: potent antitumor activity

MLN0905
maximum tolerated dose ([2]; QD (daily) schedule): 6.25 mg/kg | maximum tolerated dose ([2]; QDx3/wk (3-days on/4-days off) schedule): 14.5 mg/kg | EC50 [3]: 9 nM | EC50 [4]: 29 nM

COc1cc(OC)c(/C=C/S(=O)(=O)Cc2ccc(OC)c(NCC(=O)[O-])c2)c(OC)c1.[Na+] [ON 01910]
tumor growth in xenograft model [5]: inhibition of tumor growth | tumor growth in xenograft models [6]: inhibited tumor growth | MTD ([7]; i.v., days 1, 4, 8, 11, 15, and 18 in 28-day cycles, advanced solid tumors): 3,120 mg | IC50 [8]: 18 to 260 nM

C[C@@H](Oc1cc(-n2cnc3ccc(CN4CCN(C)CC4)cc32)sc1C(N)=O)c1ccccc1C(F)(F)F [GSK461364]
effect of the combination of TH588 with a Plk1 inhibitor [9]: more than additive | final recommended phase II dose ([7]; intravenously, schedule A (days 1, 8, and 15 of 28-day cycle)): 225 mg | incidence of venous thrombotic emboli (VTE) ([7]; phase I, advanced solid tumors): 20%

CC[C@@H]1C(=O)N(C)c2cnc(Nc3ccc(C(=O)NC4CCN(C)CC4)cc3OC)nc2N1C1CCCC1 [BI2536]
effect of the combination of TH588 with a Plk1 inhibitor [9]: more than additive | T/C, BxPC-3 model [10]: 5% | MTD suggested by other studies ([7]; Frost et al.): 50 to 70 mg | maximum tolerated dose ([7]; day 1 schedule): 350 mg | maximum tolerated dose ([7]; days 1+8 schedule): 200 mg | maximum tolerated dose (MTD) in combination with pemetrexed ([7]; intravenous, NSCLC, day 1 every 3 weeks): 300 mg | dose at which dose-limiting toxicities occurred ([7]; with 500 mg/m^2 pemetrexed, NSCLC, day 1 every 3 weeks, two DLT): 325 mg | T/C, HCT 116 xenografts ([11]; 50 mg/kg once per week): 15% | T/C, HCT 116 xenografts ([11]; 50 mg/kg twice per week): 0.3% | T/C, A549 model [12]: 14%

COc1cc(C(=O)N[C@H]2CC[C@H](N3CCN(C)CC3)CC2)ccc1Nc1ncc2c(n1)N(C1CCCC1)CC1(CC1)C(=O)N2C [Plogosertib]
IC50 [13]: 3 nM

COc1ccc(S(=O)(=O)N(C(C)=O)c2ccccc2/C=C/c2cc[n+]([O-])cc2)cc1 [HMN-214]
MTD ([7]; 5 consecutive days every 4 weeks, based on previous patient treatment load): 18 to 30 mg/m^2 | doses at which DLTs were observed ([7]; 5 consecutive days every 4 weeks): 24 to 48 mg/m^2 | maximum tolerated dose and recommended dose ([7]; continuous 21-day dosing every 28 days): 8.0 mg/m^2/d | dose with dose-limiting toxicities ([7]; continuous 21-day dosing every 28 days, myalgia/bone pain syndrome and hyperglycemia): 9.9 mg/m^2/d

COc1cc(C(=O)NC2CCN(C)CC2)ccc1Nc1ncc2c(n1)N(C1CCCC1)CC(F)(F)C(=O)N2C [RO3280]
antitumor activity when dosed more frequently ([14]; dosed more frequently): complete tumor regression | tumor growth inhibition ([14]; once weekly at 40 mg/kg): 72%

CC[C@]1(O)C[C@@H]2C[N@@](CCc3c([nH]c4ccccc34)[C@@](C(=O)OC)(c3cc4c(cc3OC)N(C=O)[C@H]3[C@@](O)(C(=O)OC)[C@H](OC(C)=O)[C@]5(CC)C=CCN6CC[C@]43[C@@H]65)C2)C1 [vincristine]
effect when used with Plk1 inhibitors in killing tumor cells [15]: more-than-additive effect

COC(=O)Nc1nc2ccc(C(=O)c3cccs3)cc2[nH]1 [nocodazole]
effect when used with Plk1 inhibitors in killing tumor cells [15]: more-than-additive effect

CN1CCN(c2ccc(OC(F)(F)F)c(Nc3ncc4c(n3)-c3c(c(C(N)=O)nn3CCO)CC4)c2)CC1 [onvansertib]
effect of the combination of TH588 with a Plk1 inhibitor [9]: more than additive

Nc1nc(NC2CC2)cc(-c2cccc(Cl)c2Cl)n1 [TH588]
effect of killing cancer cells by the combination of Plk1 inhibitors with TH588, versus each alone ([9]; C4-2 CRPC cells, TH588 with BI2536, five days, Bliss Independence model, FIG. 1A): more than additive | mitotic arrest with the combination [16]: greater than additive | microtubule polymerization in vitro [17]: inhibits microtubule polymerization | apoptotic cancer cell killing with the combination [18]: greater than additive | effect of tumor cell killing using the combination treatment [19]: more than additive | effect on tumor cell killing in vivo (cleaved caspase-3 positive cells) [20]: more-than-additive | effect of killing by the drug combination in non-cancer cells [21]: not more than additive
